Test results published in US9981988B2, “Polymorphic forms and co-crystals of a c-Met inhibitor” (AMGEN, INC., priority 2014, dated 2018).

Assay: Solubility in organic solvents
Assay type: physicochemical
Settings: 20 °C, organic solvent or mixture, thermodynamic from solid; about 20 to about 25° C.; solvent not given
Method: In all studies, excess solid of the compound was allowed to equilibrate for at least 12 hours while stirring.

COCCOc1cnc2ccn([C@H](C)c3nnc4c(F)cc(-c5cnn(C)c5)cn34)c(=O)c2c1 [DMSO hemisolvate form of Compound M, 6-{(1R)-1-[8-fluoro-6-(1-methyl-1H-pyrazol-4-yl)[1,2,4]triazolo[4,3-a]pyridin-3-yl]ethyl}-3-(2-methoxyethoxy)-1,6-naphthyridin-5(6H)-one]
solubility: ~164 mg/mL
